Reference: patent EP4775579A1, “BERBERRUBINE-RELATED COMPOUND” (Mitogenic Co., Ltd., priority 2023, dated 2025)
Counter-ions that a name gives are not always drawn. Values belong to the compound of their own block, whether it stands above or below them.

Experiments:
[1] = system: mouse spermatozoa; test: Sperm motility and MitoTracker staining after oral administration to mice; format: in vivo
Protocol: Male C57BL/6NJcl mice aged 9 to 10 weeks were orally administered 1.25% agar containing 0.35 mg/mL of quinoid-type berberrubine or 1.25% agar not containing quinoid-type berberrubine for 2 weeks. The oral administration was performed by placing a container containing this agar in a cage with the mice, such that the mice could constantly ingest this agar from the container (subsequent oral administration of agar to mice was performed in the same manner). At 20 weeks of age, the mice were anesthetized isoflurane (KANTO KAGAKU), euthanized by cervical dislocation, and had their testes and epididymis removed. The removed epididymis was cut into pieces with scissors in 1 mL of phosphate buffered saline (PBS) and then placed at room temperature for 1 hour, thereby preparing sperm samples. 20 µL of the sample was transferred to a glass bottom dish, and mitochondria and nuclei were stained by MitoTracker (manufactured by Thermo Fisher Scientific) and Hoechst (manufactured by NACALAI TESQUE, INC.), respectively.

[2] = system: Mouse fetal fibroblast (MEF) cells; test: Tom20 immunofluorescence staining, content of mitochondria in MEF cells; format: cell-based; settings: 30 µM, 48 hours after addition
Protocol: (§1) 48 hours after addition, Tom20, which is a mitochondrial outer membrane protein, was detected by immunofluorescence staining. For the detection of Tom20, the anti-Tom20 antibody (Santa Cruz, sc-11415) was used.

[3] = system: brown fat cells; test: TMRM/Hoechst fluorescence microscopy of primary cultured brown fat cells; format: cell-based, mice; settings: 30 µM, 48 hours after addition
Protocol: Brown fat cells removed from fetal C57BL/6NJcl mice were cut into pieces with scissors in an isolation buffer solution (0.123 M of sodium chloride, 5 mM of glucose, 5 mM of potassium chloride, 1.3 mM of calcium chloride, 100 mM of HEPES-NaOH (pH 7.4), 4% BSA) containing 1 mg/mL of collagenase, and warmed in a water bath at 37 °C for 30 minutes. After removal of aggregates using a cell strainer, the cells were collected by centrifugation at 1000 x g for 5 minutes and suspended in a DMEM medium containing 20% FBS, thereby preparing primary cultured cells of the brown fat cells.
Moreover, as a control, the same amount of DMSO as in the DMSO solution of quinoid-type berberrubine was added to the primary cultured cells.
The primary cultured cells cultured for 48 hours after addition had the nuclei stained with Hoechst (manufactured by NACALAI TESQUE, INC.) and mitochondria stained with tetramethylrhodamine methyl ester (TMRM, manufactured by Thermo Fisher Scientific) and then were observed under a fluorescence microscope (magnification: 60x).

[4] = system: cardiac failure and myocardial fibrosis markers; test: Quantitative RT-PCR of cardiac failure and myocardial fibrosis markers in aged mice; format: in vivo; settings: mice from 24 months of age, 12 weeks after start; adduct 0.5 mg/mL in drinking water; quinoid-type 0.5 mg/mL in diet
Source text: Moreover, the results of quantifying cardiac failure and myocardial fibrosis markers in the mice 12 weeks after the start of administration by means of quantitative RT-PCR are shown in FIG. 18.
Moreover, the results of quantifying cardiac failure and myocardial fibrosis markers in the mice 12 weeks after the start of administration by means of quantitative RT-PCR are shown in FIG. 21.

[5] = system: tau proteins; test: Western blotting of tau proteins in Neuro2A cells with aggregated tau; format: cell-based; settings: 30 µM, 8 hours of culturing
Protocol: Neuro2A cells were introduced with ΔN-P301Ltau-CRY2olig by transfection. One day after introduction, nocodazole was added to stop the cell cycle, and subsequent blue light irradiation for 24 hours induced the aggregation of tau proteins in the cells.
After 8 hours of culturing after addition, the tau proteins in the cells were detected by means of Western blotting using an antibody against phosphorylated Tau at position S396 (pS396), an antibody against phosphorylated Tau at position S422 (pS422), an antibody against full length Tau (JM), and an antibody against the C-terminal region of Tau (tauC). The tau proteins were detected at around 100 kDa.

[6] = system: C57BL/6N24 mice; test: M-mode echocardiography in aged mice; format: in vivo; settings: mice from 24 months of age, 12 weeks after start; adduct 0.5 mg/mL in drinking water; quinoid-type 0.5 mg/mL in diet
Source text: The results of echocardiography using the M-mode echocardiography technique on the mice 12 weeks after the start of administration are shown in FIG. 16.
The results of echocardiography using the M-mode echocardiography technique on the mice 12 weeks after the start of administration are shown in FIG. 20.

[7] = literature value; cited from earlier work
[8] = system: mice irradiated with UV; test: Skin of UV-irradiated mice, visual observation; format: in vivo; settings: oral, 1.25% agar containing 0.35 mg/mL for 2 months; UV 3 times a week for 8 weeks
Protocol: Male C57BL/6NJcl mice aged 8 weeks were orally administered 1.25% agar containing 0.35 mg/mL of quinoid-type berberrubine or 1.25% agar not containing quinoid-type berberrubine (control) for 2 months. The skin of the mice during the same period was irradiated with UV 3 times a week for 8 weeks. The irradiation dose was 1 mW/cm^2 for 70 seconds (70 mJ/cm^2) in the first week, 1 mW/cm^2 for 80 seconds (80 mJ/cm^2) in the second week, 1 mW/cm^2 for 90 seconds (90 mJ/cm^2) in the third week, and 1 mW/cm^2 for 100 seconds (100 mJ/cm^2) in the fourth week and thereafter. At the end of the same period, the skin of the mice was visually observed.

[9] = system: mitochondrial mRNA; test: Quantitative RT-PCR of mitochondrial mRNA in aged mice; format: in vivo; settings: mice from 24 months of age, 12 weeks after start; adduct 0.5 mg/mL in drinking water; quinoid-type 0.5 mg/mL in diet
Source text: Moreover, the results of quantifying the mRNA expression of mitochondria in the mice 12 weeks after the start of administration by means of quantitative RT-PCR are shown in FIG. 19.
Moreover, the results of quantifying the expression of Mitol which is mRNA of mitochondria in the mice 12 weeks after the start of administration by means of quantitative RT-PCR are shown in FIG. 22.

[10] = system: C2C12 cells; test: Oxygen consumption rate (OCR) of C2C12 cells, extracellular flux analyzer (basal respiration, ATP synthesis, maximal respiration); format: cell-based; settings: 30 µM
Protocol: A DMSO solution of 3.5 mg/mL of quinoid-type berberrubine was added to C2C12 cells in Dulbecco's modified Eagle (DMEM) medium containing 10% fetal bovine serum (FBS), penicillin, and streptomycin, such that the final concentration was 30 µM (FIG. 4A).
As a control, the same amount of water was added to the C2C12 cells described above.
During this period, the oxygen consumption rate (OCR) of the C2C12 cells was measured over time using an extracellular flux analyzer.
The OCR during the period between the addition of the ATP synthase inhibitor and the addition of the uncoupling agent, the OCR during the period between the addition of the uncoupling agent and the addition of the mitochondrial complex inhibitor, and the OCR in the period after the addition of the mitochondrial complex inhibitor each correlate with the amount of basal respiration, ATP synthesis, and maximal respiration in mitochondria. Thus, the amount of basal respiration, ATP synthesis, and maximal respiration in mitochondria were evaluated using OCR at the points of 30, 60, and 90 minutes as indicators.

[11] = system: HeLa cells; test: Cancer cell growth, trypan blue cell count; format: cell-based, human; settings: 30 µM; 24, 48, and 72 hours after addition
Protocol: Cells were collected at 24, 48, and 72 hours after addition and stained with trypan blue, and the number of cells were measured. Note that the HeLa cells are cell lines derived from human uterus cancer cells and are widely used as model cells for cancer.

[12] = system: mitochondria isolated from cardiomyocytes of mice; test: OCR of mitochondria isolated from cardiomyocytes of treated mice, flux analyzer; format: in vivo; settings: 12 weeks after start; adduct 0.5 mg/mL in drinking water; quinoid-type 0.5 mg/mL in diet
Source text: Moreover, mitochondria were isolated from cardiomyocytes of mice 12 weeks after the start of administration using a standard method. 23A and 23B.

[13] = system: mitochondrial respiratory chain supercomplexes; test: Formation of mitochondrial respiratory chain supercomplexes, FRET between GFP-complex I and RFP-complex IV in C2C12 cells; format: cell-based; settings: 3, 10, 30, or 60 µM; 24 hours after addition
Protocol: At the point of 24 hours after addition, formation of a mitochondrial respiratory chain supercomplex was detected by detecting FRET between GFP and RFP, resulting from the association of complex I and complex IV.

[14] = system: mouse visceral fat; test: Accumulation of visceral fat in mice; format: in vivo; settings: male mice aged 50 weeks; oral, 1.25% agar containing 0.35 mg/mL for 2 months
Protocol: Male C57BL/6NJcl mice aged 50 weeks were orally administered 1.25% agar containing 0.35 mg/mL of quinoid-type berberrubine or 1.25% agar not containing quinoid-type berberrubine (control) for 2 months. At the end of the period, accumulation of visceral fat in the mice was observed.

[15] = system: PINK1-knockout MEF cells; test: Tom20 immunofluorescence staining, content of mitochondria in PINK1-knockout MEF cells (Parkinson's disease model); format: cell-based, Mouse; settings: 30 µM, 48 hours after addition
Protocol: as §1
Note that PINK1 is the gene responsible for Parkinson's disease, and PINK1 deficiency causes mitochondrial dysfunction associated with Parkinson's disease. Therefore, PINK1-knockout MEF cells are used as a model for patients affected by Parkinson's disease.

[16] = physchem
Source text: Determine the minimum amount (mL) of the solvent that can completely dissolve the berberrubine-related compound by changing the volume of the solvent, as appropriate. Calculate the solubility (g/mL) of each berberrubine-related compound in each solvent from the used berberrubine-related compound (1 g) and the minimum volume (mL) of the solvent.
By changing the volume of the solvent, as appropriate, the minimum amount (mL) of the solvent that can completely dissolve the berberrubine-related compound was determined. From the used berberrubine-related compound (1 g) and the minimum volume (mL) of the solvent, the solubility (g/mL) of each berberrubine-related compound in each solvent was determined.

Structure (SMILES): COc1ccc2cc3n(cc-2c1=O)CCc1cc2c(cc1-3)OCO2 [quinoid-type berberrubine, 10-methoxy-5,6-dihydro-9H-[1,3]dioxolo[4,5-g]isoquinolino [3,2-a]isoquinolin-9-one]
- number of spermatozoa in which mitochondria were stained with MitoTracker, increase compared to the control ([1]; 1.25% agar containing 0.35 mg/mL for 2 weeks): about twofold
- sperm motility compared to the control ([1]; quinoid-type: 1.25% agar containing 0.35 mg/mL for 2 weeks, adduct: 2 mg/mL aqueous solution): more actively motile
- content of mitochondria in the cells compared to the control [2]: increased
- increase in amount of active mitochondria having normal membrane potential, compared to the addition of a berberrubine acetic acid adduct [3]: to a greater extent
- staining of mitochondria by TMRM (active mitochondria having normal membrane potential) [3]: strong staining
- expression levels of cardiac failure markers (Nppa, Nppb, and Myh7) compared to the control [4]: reduced
- expression levels of myocardial fibrosis markers (Collagen1 and Ctgf) compared to the control [4]: reduced
- expression level of full-length Tau [5]: no significant changes
- ratio of the expression level of phosphorylated Tau at position S396 with respect to that of full-length Tau (pS396-tau/JM), reduction compared to the control [5]: about 35%
- ratio of the expression level of phosphorylated Tau at position S422 with respect to that of full-length Tau (pS422-tau/JM), reduction compared to the control [5]: no significant changes
- % left ventricular fractional shortening (%FS) compared to the control [6]: increase
- left ventricular ejection fraction (LVEF) compared to the control [6]: increase
- left ventricular end-diastolic diameter (LVDd) compared to the control [6]: decrease
- left ventricular end-systolic diameter (LVDs) compared to the control [6]: decrease
- left ventricular filling pressure (E/e') compared to the control [6]: decrease
- SOLUBILITY (g/mL) OF BERBERRUBINE-RELATED COMPOUND IN 1 mL OF SOLVENT, WATER [7]: 0.000013 (LITERAT URE VALUE) g/mL
- number of wrinkles compared to mice not administered [8]: fewer
- skin darkening compared to mice not administered [8]: inhibited
- wrinkle depths compared to mice not administered [8]: shallower
- expression of Mitol compared to the control [9]: increase
- basal respiration in mitochondria, enhancement compared to the controls ([10]; 24 hours after addition, OCR at 30 minutes): about 4 fold
- ATP synthesis in mitochondria, enhancement compared to the controls ([10]; 24 hours after addition, OCR at 60 minutes): about 4 fold
- maximal respiration in mitochondria, enhancement compared to the controls ([10]; 24 hours after addition, OCR at 90 minutes): about 4 fold
- ATP synthesis in mitochondria, compared to the addition of the berberrubine acetic acid adduct ([10]; C2C12 cells): about 2.5 fold
- basal respiration in mitochondria, compared to the addition of the berberrubine acetic acid adduct ([10]; C2C12 cells): about 2.5 fold
- maximal respiration in mitochondria, compared to the addition of the berberrubine acetic acid adduct ([10]; C2C12 cells): about 2.6 fold
- ratio of the number of HeLa cells after administration with respect to the number of HeLa cells in the control [11]: decreased over time
- oxygen consumption rate (OCR) in State 2 (ADP-limited state) compared to the control [12]: increased
- oxygen consumption rate (OCR) in State 3 (activated respiratory state) compared to the control [12]: increased
- oxygen consumption rate (OCR) in State 3u (uncoupled state) compared to the control [12]: increased
- oxygen consumption rate (OCR) in State 4o (oligomycin-induced state) compared to the control [12]: increased
- formation of mitochondrial respiratory chain supercomplexes (FRET between GFP and RFP) [13]: promoted the formation of mitochondrial respiratory chain supercomplexes in a concentration-dependent manner
- visceral fat accumulation compared to mice not administered [14]: inhibited
- content of mitochondria in the cells [15]: increased

- solubility at 0.5 h ([16]; methanol): 34 mg/mL
- solubility at 0.5 h ([16]; water): 30 mg/mL
Structure (SMILES): COc1ccc2cc3n(cc-2c1=O)CCc1cc2c(cc1-3)OCO2 [berberrubine acetate salt]
